We go through one compound from patent publication US6512007B1, “Use of galiella lactone” (Bayer Aktiengesellschaft, priority 2000, dated 2003).

Test [1] deals with Stat1. The experiment in a line: IL-6-induced tyrosine-701 phosphorylation of Stat1 in HepG2 cells, immunoprecipitation/Western blot. Format: cell-based, human. The conditions noted are these: HepG2, IL-6 50 ng/ml; all concentrations tested, up to 16 μg/ml, equivalent to 165 μM. From the text: (§1) A crucial step in IL-6-dependent intracellular signal transduction is the phosphorylation of tyrosine-705 in Stat3 and tyrosine-701 in Stat1. […] However, inhibitors which inhibit the Stat3 and Stat1 phosphorylation also have crucial effects on other signal cascades, and therefore pharmaceutically usable inhibitors of IL-6-dependent gene expression should, in the concentration range in which they display their pharmacological effect, affect the Stat3 or Stat1 phosphorylation only slightly or not at all.
(§2) Seed out HepG2 cells in Petri dishes (diameter: 10 cm) (OptiMEM medium with 10% fetal calf serum and penicillin/streptomycin (100 iu) cell density: 5×10^5 cell/ml). Incubate in a moist atmosphere with 5% CO2 at 37° C. for 24 h. Replace medium by fresh OptiMEM medium with 0.5% fetal calf serum and penicillin/streptomycin (100 iu) and incubate for a further 48 h. Replace medium by fresh OptiMEM medium with 0.5% fetal calf serum and penicillin/streptomycin (100 iu), add test substances in various concentrations, and incubate for 60 min. 5 μl of the substances dissolved in ethanol, or only ethanol (controls), were added per mixture (10 ml). Induce cells by adding IL-6 (final concentrations 50 ng/ml).
(§3) After 20 min. remove medium and wash cell lawn twice wtih 1.5 ml of ice-cold PBS (137 mM NaCl, 2.7 mM KCl, 8.1 mM Na2HPO4×2H2O, 1.5 mM KH2PO4) each time. […]

The subject of test [2] is Stat3. The experiment in a line: IL-6-induced phosphorylation of Stat3 (tyrosine-705, serine-727) in HepG2 cells, immunoprecipitation/Western blot. In kind it is cell-based, human. The conditions noted are these: HepG2, IL-6 50 ng/ml; all concentrations tested, up to 16 μg/ml, equivalent to 165 μM.
Excerpt: as §1, §2, §3
Background: Immunoblotting shows a protein as a band on a membrane.

For the compound `C[C@H]1C=C2C(=O)O[C@H]3CC[C@@H](C1)[C@@]23O` [galiella lactone], the “effect on the phosphorylation of Stat1” value in test [1] was “no effect”. For the same compound, the “effect on the phosphorylation of Stat3” value in test [2] is reported as “no effect”.
